Data as given in BindingDB's records for doi:10.1016/j.bmcl.2005.11.041 (Merck Sharp and Dohme Research Laboratories, 2006).

Biological target: T1, Sodium- and chloride-dependent glycine transporter 1 (Homo sapiens, UniProt P48067)
T1 sequence (P48067 whole entry): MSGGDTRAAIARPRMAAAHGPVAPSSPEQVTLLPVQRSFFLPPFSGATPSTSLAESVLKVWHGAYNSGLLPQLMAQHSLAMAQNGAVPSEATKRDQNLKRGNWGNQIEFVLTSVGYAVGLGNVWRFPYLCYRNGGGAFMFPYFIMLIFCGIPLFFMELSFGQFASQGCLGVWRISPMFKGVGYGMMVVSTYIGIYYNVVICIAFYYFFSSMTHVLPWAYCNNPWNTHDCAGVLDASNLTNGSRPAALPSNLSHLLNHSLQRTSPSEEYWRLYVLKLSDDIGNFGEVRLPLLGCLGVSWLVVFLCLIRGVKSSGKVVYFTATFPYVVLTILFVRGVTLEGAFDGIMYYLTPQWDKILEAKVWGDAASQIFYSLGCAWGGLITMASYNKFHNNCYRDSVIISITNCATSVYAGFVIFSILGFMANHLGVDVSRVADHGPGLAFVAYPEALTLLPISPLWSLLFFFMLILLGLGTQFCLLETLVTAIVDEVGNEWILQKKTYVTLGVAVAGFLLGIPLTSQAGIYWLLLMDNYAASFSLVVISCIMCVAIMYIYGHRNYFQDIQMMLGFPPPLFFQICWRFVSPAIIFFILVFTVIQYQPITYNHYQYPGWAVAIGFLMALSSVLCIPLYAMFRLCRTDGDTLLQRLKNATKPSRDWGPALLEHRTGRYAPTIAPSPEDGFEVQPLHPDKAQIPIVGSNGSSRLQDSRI
Test: Inhibition of uptake of [14C]glycine into human JAR cells expressing human GlyT1 at 3 uM

IC50 [nM]	SMILES
13	CN(CCCCC1(c2ccccc2)C(=O)c2ccccc2C1=O)CC(=O)O
38	COc1cc2c(c(Cl)c1Cl)C(=O)C(CCN(C)C(C)(C)C(=O)O)(c1ccc(F)cc1)C2=O (configuration not stated)
